We go through 1 compound from patent publication US20250186411A1, “Methods of Treating Disorders Associated with Overactivation of IKKB” (The United States Government as represented by the …, priority 2023, published 2025).

Several values for one entry are separate records, joined by “and”; a condition that tells them apart may be missing. Identical values can stand only once.

As a reminder, the EC50 is the concentration giving half of the maximal effect.

Series [1] relates to KLF15 promoter (pEZX-FR03hKLF15p human podocytes). Briefly: KLF15 reporter high-throughput screening assay in human podocytes (firefly/renilla luciferase). The class given is cell-based. As for the experimental part:
Briefly, these podocytes proliferate under permissive conditions (gamma interferon at 33° C.), but differentiate under nonpermissive conditions (37° C.).
The amplified fragment contains MluI and PmeI RE sites and was subcloned into the MluI and PmeI cloning site of the pEZX-FR03 Firefly luciferase (FLuc) and Renilla luciferase (Rluc) reporter cloning vector (GeneCopoeia) to generate pEZX-FR03hKLF15p. Following verification of the sequence by restriction and μsequencing, the pEZX-FR03hKLF15p construct (which contains a puromycin resistance cassette) was transfected into human podocytes followed by selection in puromycin-containing media for 2 weeks. Surviving podocytes clones were pooled together for further analysis.
The library of compounds from the National Cancer Institute (Approved Oncology Drugs Set VI; Natural Products Set III; Diversity Set V; and Mechanistic Diversity Set II) were added to a final concentration of 1 μM in 0.5% DMSO in the low FBS cell culture media (0.2% FBS) using liquid handling system PipetMax (Gilson). After 24 hours incubation at 37° C., the Luc-Pair™ Duo-Luciferase HT Assay Kit (GeneCopoeia LF015) were used and firefly and renilla luciferase activity was determined using the SpectraMax M3 (Molecular Devices). Positive controls were all-trans retinoic acid (atRA) (1 μM) and dexamethasone (DEX) (1 μM). Negative controls were DMSO and cell-free media.
(§1) To identify small molecule inducers of KLF15 expression in human podocytes, human podocytes were generated with a dual reporter, firefly luciferase directed at the KLF15 promoter region and renilla luciferase (pEZX-FR03hKLF15p). […] The positive controls were inducers of KLF15 expression, dexamethasone (DEX) and all-trans retinoic acid (atRA), and […] and cell-free wells served as negative controls.

Series [2] has the same test system. Briefly: Half maximal effective concentration (EC50) of KLF15 reporter activity. To be noted: KLF15 reporter activity, dose-response; read-out: EC50. The format is cell-based. As for the experimental part: The EC50 was determined using nonlinear regression and then choosing the equation of Sigmoidal function, 4PL method (X is log(concentration); or the equation of log(agonist) vs. response—variable slope).
as §1

In series [3] the test system is KLF15 promoter (pEZX-FR03hKLF5p human podocytes). Briefly: Lipopolysaccharide treatment in human podocytes, KLF15 reporter activity. The format is cell-based. The note with it: as compared to DMSO. On the procedure:
(§2) Differentiated pEZX-FR03hKLF5p human podocytes were treated with 25 μg/ml lipopolysaccharide (LPS) or vehicle and 1 μM KLF15 agonist or vehicle control for 24 hours. Firefly and renilla luciferase assay were measured initially to determine relative KLF15 reporter activity.

Series [4] relates to human podocytes. Briefly: Cell viability of podocytes (renilla activity, MTS assay). The class given is cell-based. On the procedure:
as §2
Differentiated pEZX-FR03hKLF5p human podocytes were treated with 0.4 μg/ml adriamycin (ADR) or vehicle and 1 μM KLF15 agonist or vehicle control for 24 hours. Firefly and renilla luciferase assay were measured initially to determine relative KLF15 reporter activity.
To assess cell viability, the CellTiter 96® AQueous One Solution Reagent (Promega) was added to the culture media and plates were incubated for 2 hours at 37° C. with 5% CO2.

The test system of series [5] is FVB/n mice. Briefly: Nephrotoxic Serum Nephritis (NTS) model. The format is in vivo, mouse. As for the experimental part:
In the Nephrotoxic Serum Nephritis (NTS) model, 8-week-old FVB/n mice were initially sensitized with an intraperitoneal injection of 0.5 mg of sheep IgG (IP, Jackson ImmunoResearch) with complete Freund's adjuvant (IP, Millipore Sigma). Five days later, mice were administered 100 μl of NTS (IP, ProbeTex), as previously described (Estrada et al. (2018) JCI Insight 3). […] Urine was collected and mice were euthanized at day 7 or day 14 post-NTS treatment.
Urine albumin was quantified by ELISA using a kit from Bethyl Laboratory Inc. Urine creatinine levels were measured in the same samples using the Creatinine Colorimetric Assay Kit (500701; Cayman Chemical) as per manufacturer's protocol.
Briefly formalin-fixed and paraffin embedded sections were deparaffinized, and endogenous peroxidase was inactivated with H2O2. All kidney sections from these mice were prepared in identical fashion. Immunofluorescence was performed using rabbit anti-KLF15, mouse anti-WT1 (Santa Cruz, SC-7385), rabbit anti-Synaptopodin (Sigma, SAB3500585), rabbit anti-p65 (Cell Signaling Tech, 8242S) antibodies. After washing, sections were incubated with the appropriate fluorophore-linked secondary antibody (Alexa Fluor 647 Donkey anti-mouse, Alexa Fluor 568 Donkey anti-rabbit antibodies, Life Technologies). After counter staining with Hoechst (Thermo Fisher Scientific), slides were mounted in Prolong Gold mounting media (Thermo Fisher Scientific) and photographed under a Nikon Eclipse Ni-E Fully Motorized Microscope System with a DS-Qi2 digital camera.
Quantification of KLF15 staining in the podocytes was determined by quantifying the intensity of KLF15 staining (optical density) in WT1+Hoechst staining using ImageJ 1.53c software (National Institute of Health, http://imagej.nih.gov/ij).
Mice were perfused with PBS, and the kidneys were fixed in 10% phosphate buffered formalin overnight and switched to 70% ethanol before processing for histology. Kidney tissue was embedded in paraffin by Stony Brook Medicine Research Histology Core Laboratory (RHCL)—Department of Pathology and 4-μm-thick sections were stained with periodic acid-Schiff (PAS), hematoxylin & eosin (H&E), and masson's trichrome (Sigma-Aldrich). Quantification of % FSGS was determined by renal pathology in a blinded fashion (Huntsman Cancer Institute-University of Utah Health).

In series [6] the test system is NF-κB signaling (p50, p65, IκBα).
Excerpt: Differentiated human podocytes were lysed with a fractionation buffer containing 1× protease and phosphatase inhibitor cocktail (Thermo Fisher Scientific) and separate cytoplasmic and nuclear fractions using a modified procedure described before (72).
Series [7] concerns the target IKBKB^M96V mutant (Homo sapiens, UniProt O14920, M96V).
Description: After the kinase reaction, an equal volume of ADP-Go™ Reagent is added to both terminate the kinase reaction and deplete the remaining ATP. Subsequently, the Detection Reagent is added to simultaneously convert ADP to ATP and measure the concentrations of newly synthesized ATP using a luciferase/luciferin reaction. The light generated is measured using a 96-well plate reader SpectraMax M3 (Molecular Devices). Luminescence can be correlated to ADP concentrations by using an ATP-to-ADP conversion curve.
The test system of series [8] is mice. To be noted: as compared to DMSO treatment.
Excerpt: Serum was subsequently collected and mice were euthanized for collection of kidney, liver, and heart tissue.
For series [9], the target named is IKKβ (Homo sapiens, UniProt O14920). Briefly: Thermal shift assay. To be noted: BT503 1 μM, human podocytes.
IKKβ, sequence (O14920 whole entry): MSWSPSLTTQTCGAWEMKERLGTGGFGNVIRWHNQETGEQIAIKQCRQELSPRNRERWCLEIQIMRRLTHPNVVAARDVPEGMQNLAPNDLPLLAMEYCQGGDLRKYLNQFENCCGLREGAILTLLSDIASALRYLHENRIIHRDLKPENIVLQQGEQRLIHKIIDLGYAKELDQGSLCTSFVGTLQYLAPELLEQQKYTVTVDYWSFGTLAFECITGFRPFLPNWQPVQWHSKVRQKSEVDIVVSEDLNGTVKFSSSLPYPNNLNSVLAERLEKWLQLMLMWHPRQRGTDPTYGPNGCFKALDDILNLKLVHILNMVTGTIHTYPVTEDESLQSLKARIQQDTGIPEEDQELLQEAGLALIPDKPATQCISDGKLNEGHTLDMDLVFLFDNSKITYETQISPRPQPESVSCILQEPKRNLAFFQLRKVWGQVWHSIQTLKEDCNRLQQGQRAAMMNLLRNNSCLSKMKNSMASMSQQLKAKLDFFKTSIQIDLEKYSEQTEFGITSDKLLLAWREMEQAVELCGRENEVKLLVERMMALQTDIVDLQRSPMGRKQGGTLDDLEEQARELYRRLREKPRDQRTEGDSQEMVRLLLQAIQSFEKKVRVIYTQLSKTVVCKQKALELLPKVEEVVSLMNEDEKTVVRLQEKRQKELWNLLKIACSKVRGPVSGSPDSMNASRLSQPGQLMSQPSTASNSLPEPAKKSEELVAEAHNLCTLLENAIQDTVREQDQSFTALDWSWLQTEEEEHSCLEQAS
Description: Each tube was treated at a range of temperatures (40° C. to 52° C.) for 3 minutes using Eppendorf Mastercycler gradient temperature setting. Protein was subsequently extracted from cells using freeze-thaw cycle, and IKKβ and β-actin were detected using western blot.

IKBKB^M96V mutant, sequence (O14920 whole entry M96V): as the sequence (O14920 whole entry) above, with M96V counted along it

Consider `CSc1ccc(NC(=O)Nc2ccc(C)nc2)cc1` [BT503], for which the “KLF15 activity as compared to DEX-treated podocytes” value in series [1] is listed as “higher KLF15 activity”. Besides, the “KLF15 activity under nonpermissive versus permissive conditions” value in [1] (37 C vs 33 C) is “only induces KLF15 activity under nonpermissive (37 C) conditions”. In addition, the EC50 in series [2] was ~7.1 nM and < 10 nM. Also, the “KLF15 activity in the setting of LPS treatment” value in series [3] was “maintained the elevated KLF15 activity”. The “toxicity to human podocytes” value in series [4] (analogue screen) is recorded as “no observed toxicity”. Also, the “renilla activity (cell viability) in the setting of LPS treatment” value in series [4] (as compared to DMSO-treated podocytes) is reported as “restored renilla activity”. For the same compound, in series [5] (day 7 and 14 post-NTS treatment, vs DMSO), the albuminuria result is reported as “significantly less albuminuria”. Also, the “p65 expression in the glomeruli” value in series [5] (post-NTS treatment) is “attenuated”. Further, in series [5] (vs DMSO), the “glomerular injury (% of glomeruli with FSGS, extracapillary proliferation) and proteinaceous casts” value is listed as “significantly reduced”; the glomerular synaptopodin expression entry was “restored”; the “interstitial fibrosis (masson's trichrome and α-SMA staining)” value is “less interstitial fibrosis”; the “podocyte number (WT1+ podocytes per glomerular cross-sectional area)” value is recorded as “restored the podocyte number”. Moreover, the “nuclear localization of p50 and p65” value in series [6] (LPS-treated podocytes) is on record as “mitigated this translocation”. In addition, the IκBα expression entry in series [6] (vs DMSO in the setting of LPS treatment) is on record as “significantly increased”. For the same compound, in series [7], the “IKKβ kinase inhibition in IKBKB^M96V mutant as compared to IKBKB^WT” value is listed as “resistance to IKKβ kinase inhibition”. In addition, in series [8], the “aspartate aminotransferase (AST), alanine transaminase (ALT) levels” value is listed as “no significant difference”; the “histological changes in the kidney, heart, and liver tissue” value is reported as “no significant difference”. Moreover, in [9], the “IKKβ stability (thermal shift)” value is on record as “IKKβ stability was reduced in DMSO as compared to BT503 treatment”.
